Laboratory results taken from PubChem BioAssay (NCI).
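How tested: cells in 96-well plates exposed to compound for 48 hours at five concentrations. GI50 marks 50% less growth. At the TGI there is no net growth.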

What was measured:
Assay in all cases: NCI-60 cell line screen, 48 h
786-0 renal = test system: 786-0 renal
A498 renal = test system: A498 renal
A549 NSCLC = test system: A549 NSCLC
ACHN renal = test system: ACHN renal
BT-549 breast = test system: BT-549 breast
CAKI-1 renal = test system: CAKI-1 renal
CCRF-CEM leukemia = test system: CCRF-CEM leukemia
COLO 205 colon = test system: COLO 205 colon
DU-145 prostate = test system: DU-145 prostate
EKVX NSCLC = test system: EKVX NSCLC
HCC-2998 colon = test system: HCC-2998 colon
HCT-116 colon = test system: HCT-116 colon
HCT-15 colon = test system: HCT-15 colon
HL-60(TB) leukemia = test system: HL-60(TB) leukemia
HOP-62 NSCLC = test system: HOP-62 NSCLC
HOP-92 NSCLC = test system: HOP-92 NSCLC
HS 578T breast = test system: HS 578T breast
HT29 colon = test system: HT29 colon
IGROV1 ovarian = test system: IGROV1 ovarian
K-562 leukemia = test system: K-562 leukemia
KM12 colon = test system: KM12 colon
LOX IMVI melanoma = test system: LOX IMVI melanoma
M14 melanoma = test system: M14 melanoma
MALME-3M melanoma = test system: MALME-3M melanoma
MCF7 breast = test system: MCF7 breast
MDA-MB-231 breast = test system: MDA-MB-231 breast
MDA-MB-435 = test system: MDA-MB-435
MOLT-4 leukemia = test system: MOLT-4 leukemia
NCI-H226 lung = test system: NCI-H226 lung
NCI-H23 lung = test system: NCI-H23 lung
NCI-H460 lung = test system: NCI-H460 lung
NCI-H522 lung = test system: NCI-H522 lung
NCI/ADR-RES ovarian = test system: NCI/ADR-RES ovarian
OVCAR-3 ovarian = test system: OVCAR-3 ovarian
OVCAR-4 ovarian = test system: OVCAR-4 ovarian
OVCAR-5 ovarian = test system: OVCAR-5 ovarian
OVCAR-8 ovarian = test system: OVCAR-8 ovarian
PC-3 prostate = test system: PC-3 prostate
RPMI-8226 leukemia = test system: RPMI-8226 leukemia
RXF 393 renal = test system: RXF 393 renal
SF-268 CNS = test system: SF-268 CNS
SF-295 CNS = test system: SF-295 CNS
SF-539 CNS = test system: SF-539 CNS
SK-MEL-2 melanoma = test system: SK-MEL-2 melanoma
SK-MEL-28 melanoma = test system: SK-MEL-28 melanoma
SK-MEL-5 melanoma = test system: SK-MEL-5 melanoma
SK-OV-3 ovarian = test system: SK-OV-3 ovarian
SN12C renal = test system: SN12C renal
SNB-19 CNS = test system: SNB-19 CNS
SNB-75 CNS = test system: SNB-75 CNS
SW-620 colon = test system: SW-620 colon
T-47D breast = test system: T-47D breast
TK-10 renal = test system: TK-10 renal
U251 CNS = test system: U251 CNS
UACC-257 melanoma = test system: UACC-257 melanoma
UACC-62 melanoma = test system: UACC-62 melanoma
UO-31 renal = test system: UO-31 renal

Structure (SMILES): CN([O-])c1nc(N(C)[O-])nc(N2CCOCC2)n1.CN([O-])c1nc(N(C)[OH2+])nc(N2CCOCC2)n1.[Fe+3]
- GI50 (786-0 renal): > 100 µM
- TGI (786-0 renal): > 100 µM
- GI50 (A498 renal): 0.0197 µM
- TGI (A498 renal): > 100 µM
- GI50 (A549 NSCLC): > 100 µM
- TGI (A549 NSCLC): > 100 µM
- GI50 (ACHN renal): > 100 µM
- TGI (ACHN renal): > 100 µM
- GI50 (BT-549 breast): > 100 µM
- TGI (BT-549 breast): > 100 µM
- GI50 (CAKI-1 renal): > 100 µM
- TGI (CAKI-1 renal): > 100 µM
- GI50 (CCRF-CEM leukemia): > 100 µM
- TGI (CCRF-CEM leukemia): > 100 µM
- GI50 (COLO 205 colon): > 100 µM
- TGI (COLO 205 colon): > 100 µM
- GI50 (DU-145 prostate): > 100 µM
- TGI (DU-145 prostate): > 100 µM
- GI50 (EKVX NSCLC): > 100 µM
- TGI (EKVX NSCLC): > 100 µM
- GI50 (HCC-2998 colon): > 100 µM
- TGI (HCC-2998 colon): > 100 µM
- GI50 (HCT-116 colon): 96.6 µM
- TGI (HCT-116 colon): > 100 µM
- GI50 (HCT-15 colon): > 100 µM
- TGI (HCT-15 colon): > 100 µM
- GI50 (HL-60(TB) leukemia): > 100 µM
- TGI (HL-60(TB) leukemia): > 100 µM
- GI50 (HOP-62 NSCLC): 89.6 µM
- TGI (HOP-62 NSCLC): > 100 µM
- GI50 (HOP-92 NSCLC): 0.487 µM
- TGI (HOP-92 NSCLC): > 100 µM
- GI50 (HS 578T breast): > 100 µM
- TGI (HS 578T breast): > 100 µM
- GI50 (HT29 colon): > 100 µM
- TGI (HT29 colon): > 100 µM
- GI50 (IGROV1 ovarian): > 100 µM
- TGI (IGROV1 ovarian): > 100 µM
- GI50 (K-562 leukemia): 48.6 µM
- TGI (K-562 leukemia): > 100 µM
- GI50 (KM12 colon): 57.1 µM
- TGI (KM12 colon): > 100 µM
- GI50 (LOX IMVI melanoma): 15.5 µM
- TGI (LOX IMVI melanoma): 36 µM
- GI50 (M14 melanoma): 41.5 µM
- TGI (M14 melanoma): > 100 µM
- GI50 (MALME-3M melanoma): 54.9 µM
- TGI (MALME-3M melanoma): > 100 µM
- GI50 (MCF7 breast): > 100 µM
- TGI (MCF7 breast): > 100 µM
- GI50 (MDA-MB-231 breast): > 100 µM
- TGI (MDA-MB-231 breast): > 100 µM
- GI50 (MDA-MB-435): 61.8 µM
- TGI (MDA-MB-435): > 100 µM
- GI50 (MOLT-4 leukemia): > 100 µM
- TGI (MOLT-4 leukemia): > 100 µM
- GI50 (NCI-H226 lung): > 100 µM
- TGI (NCI-H226 lung): > 100 µM
- GI50 (NCI-H23 lung): > 100 µM
- TGI (NCI-H23 lung): > 100 µM
- GI50 (NCI-H460 lung): 18.3 µM
- TGI (NCI-H460 lung): 34.4 µM
- GI50 (NCI-H522 lung): 23.8 µM
- TGI (NCI-H522 lung): 94.7 µM
- GI50 (NCI/ADR-RES ovarian): > 100 µM
- TGI (NCI/ADR-RES ovarian): > 100 µM
- GI50 (OVCAR-3 ovarian): > 100 µM
- TGI (OVCAR-3 ovarian): > 100 µM
- GI50 (OVCAR-4 ovarian): > 100 µM
- TGI (OVCAR-4 ovarian): > 100 µM
- GI50 (OVCAR-5 ovarian): > 100 µM
- TGI (OVCAR-5 ovarian): > 100 µM
- GI50 (OVCAR-8 ovarian): > 100 µM
- TGI (OVCAR-8 ovarian): > 100 µM
- GI50 (PC-3 prostate): > 100 µM
- TGI (PC-3 prostate): > 100 µM
- GI50 (RPMI-8226 leukemia): > 100 µM
- TGI (RPMI-8226 leukemia): > 100 µM
- GI50 (RXF 393 renal): 68.3 µM
- TGI (RXF 393 renal): > 100 µM
- GI50 (SF-268 CNS): 57.4 µM
- TGI (SF-268 CNS): > 100 µM
- GI50 (SF-295 CNS): 57.6 µM
- TGI (SF-295 CNS): > 100 µM
- GI50 (SF-539 CNS): > 100 µM
- TGI (SF-539 CNS): > 100 µM
- GI50 (SK-MEL-2 melanoma): 81.8 µM
- TGI (SK-MEL-2 melanoma): > 100 µM
- GI50 (SK-MEL-28 melanoma): 84.8 µM
- TGI (SK-MEL-28 melanoma): > 100 µM
- GI50 (SK-MEL-5 melanoma): > 100 µM
- TGI (SK-MEL-5 melanoma): > 100 µM
- GI50 (SK-OV-3 ovarian): > 100 µM
- TGI (SK-OV-3 ovarian): > 100 µM
- GI50 (SN12C renal): > 100 µM
- TGI (SN12C renal): > 100 µM
- GI50 (SNB-19 CNS): > 100 µM
- TGI (SNB-19 CNS): > 100 µM
- GI50 (SNB-75 CNS): > 100 µM
- TGI (SNB-75 CNS): > 100 µM
- GI50 (SW-620 colon): > 100 µM
- TGI (SW-620 colon): > 100 µM
- GI50 (T-47D breast): > 100 µM
- TGI (T-47D breast): > 100 µM
- GI50 (TK-10 renal): > 100 µM
- TGI (TK-10 renal): > 100 µM
- GI50 (U251 CNS): 27.5 µM
- TGI (U251 CNS): > 100 µM
- GI50 (UACC-257 melanoma): > 100 µM
- TGI (UACC-257 melanoma): > 100 µM
- GI50 (UACC-62 melanoma): > 100 µM
- TGI (UACC-62 melanoma): > 100 µM
- GI50 (UO-31 renal): > 100 µM
- TGI (UO-31 renal): > 100 µM
